Patent US6153592A, “Enhancing the bioavailability of proteolytically labile therapeutic agents” (Port Systems, LLC, priority 1994, dated 2000)

Legend:
[1] = system: intestinal aminopeptidases; experiment: Protection against degradation by aminopeptidase in vivo: YdAGFdL bioavailability after ileal dosing; design: species or system rats
Description: The pentapeptide enkephalin analogue D-AJa-D-Leu-enkephalin (YdAGFdL) (1.0 mg) was directly ileally dosed to chronically ileally fistulated rats. Radiolabeled YdAGFdL (1.12 microgram) was dosed with each of four protecting agents: (1) decanted soy flour, <1K MW; (2) decanted and ultrafitered soy flour, 1K-30K MW; (3) pepsin-treated (FMC ACTI-MOD) soy flour, <30K MW; (4) the potent aminopeptidase inhibitor amastatin (positive control). Blood was collected from a jugular vein cannula at various times post-dosing, and intact YdAGFdL was quantified by a radiometric thin layer chromatography (TLC) method utilizing reverse phase KC-18 TLC plates (Whatman Co.). The TLC plates were developed with 30:701 -propanol/0.1 M phosphate buffer (pH 4.1).

[2] = in vivo, cited from earlier work

Structure (SMILES) | % YdAGFdL Bioavailability ([1]; protecting agent 1 mg, ileally fistulated rats) | protection against degradation of YdAGFdL by intestinal aminopeptidases (in words) ([1]; rats) | bioavailability following oral administration ([2]; po) | bioavailability following vaginal administration [2]
CC(C)C[C@@H](N)[C@H](O)C(=O)N[C@H](C(=O)N[C@H](C(=O)N[C@@H](CC(=O)O)C(=O)O)C(C)C)C(C)C [Amastatin] | 8.76 ± 4.47% | effective |  | 
CCNC(=O)[C@@H]1CCCN1C(=O)[C@H](CCCNC(=N)N)NC(=O)[C@H](CC(C)C)NC(=O)[C@@H](CC(C)C)NC(=O)[C@H](Cc1ccc(O)cc1)NC(=O)[C@H](CO)NC(=O)[C@H](Cc1c[nH]c2ccccc12)NC(=O)[C@H](Cc1c[nH]cn1)NC(=O)[C@@H]1CCC(=O)N1 [leuprolide] |  |  | 0.05% | 38%
